Measured values reported in patent EP4711377A1, “STEROID COMPOUND, PREPARATION METHOD THEREFOR, AND USE THEREOF” (Shujing Biopharma Co., Ltd, priority 2023, dated 2024).
Where two headings read alike, the source gives them in different places.

Assays:
GABAa receptor (α1β2γ2) = GABAa receptor (α1β2γ2) (Homo sapiens, UniProt P14867+P47870); experiment: in vitro GABAa receptor (α1β2γ2) cellular activity assay, manual whole-cell patch clamp, enhancement of currents induced by 1 µM GABA; assay type: cell-based; details: for Emax compared to Sage-217: conclusion in words from Table 1-2
Protocol: The cells used in this experiment were derived from a CHO cell line that stably expressed normal GABAa receptor functions after transfection with human GABAa receptor α1, β2, and γ2 subunit cDNAs. The cell line was constructed by B'sys GmbH. The cells were cultured in a medium (purchased from Invitrogen) containing the following components: DMEM culture medium; 10% (v/v) inactivated fetal bovine serum; 5 µg/mL Puromycin; 250 µg/mL Hygromycin B; and 100 µg/mL Zeocin. The cells were grown in culture dishes containing the above medium and cultured in an incubator at 37 °C with 5% CO2. 12 h to 24 h before the electrophysiological experiment, the cells were transferred onto circular glass slides placed in culture dishes, and were grown under the same medium and culture conditions as above. The density of cells on each circular glass slide was required to meet the requirement that the overwhelming majority of cells were independent and individual.
In this experiment, a manual patch-clamp system HEKA EPC10 USB signal amplifier and digital conversion system (purchased from HEKA Electronics, Germany) were used for whole-cell current recording. The circular glass slides with surface-grown CHO GABAa cells (see the cell culture and requirement section above) were taken out from the culture dishes and then placed into an electrophysiological recording chamber under an inverted microscope. The recording chamber was continuously perfused with extracellular fluid (approximately 1-2 mL/min). In the experiment, the whole-cell current recording technique was employed to record chloride ion currents of GABAa channels. 1 µM GABA was used to activate chloride ion currents of GABAa channels on each cell as an initial control (the reason for using 1 µM GABA concentration was that: this concentration was an effective activation concentration for the GABAa ion channel agonist GABA on the cells used in this experiment, falling between 10% and 20%). Unless otherwise specified, the experiment was performed at conventional room temperature (about 25 °C), and only cells meeting the electrophysiological recording criteria were adopted. In the experiment, the cells were ruptured and sealed, and were clamped at -80 mV after entering a whole-cell state. 1 µM GABA acted on the cells through the drug perfusion system to induce chloride ion currents of GABAa channels; the action time was about 4 s, and the current magnitude was used as the initial control value. Subsequently, the cells were perfused and incubated with the test concentration compound for 3 min, and then a mixed solution of 1 µM GABA and the corresponding test concentration compound was applied to act on the cells to induce currents, so as to observe the enhancing effect of the test compound on the currents induced by 1 µM GABA. When the cell state stabilized, the test compound would be applied from low to high concentrations to act on the same cell. In the experiment, to avoid current reduction caused by desensitization of GABAa ion channels, the interval time for the test substance acting on the cells through the drug perfusion system was at least 180 s.
The experimental data were analyzed using data analysis software provided by HEKA Patchmaster, Microsoft Excel, and Graphpad Prism.

[1] = in vivo pharmacokinetic experiment in mice; parameters: species or system ICR mice; details: male, ICR, mouse; oral intragastric administration 10 mg/kg, single, plasma
Protocol: Male ICR mice were subjected to oral intragastric administration. The plasma concentrations of the compounds of the present disclosure in the mice were measured, the PK parameters were calculated, and pharmacokinetic evaluation was performed on the compounds of the present disclosure.
Drug preparation: according to the weight of the weighed drug, the preparation volume was calculated; 5% of DMSO and 5% of HS-15 were added sequentially; after the drug was fully dissolved, 90% of a 20% aqueous β-cyclodextrin solution was added, and the mixture was well mixed for later use.
Route of administration: oral intragastric administration, at a dose of 10 mg/kg.
Administration frequency and duration: single administration.
ICR mice were stratified according to body weight and then randomly grouped, with 9 mice per group. The mice were fasted overnight prior to the experiment. The mice were subjected to oral intragastric administration. At 0 h, 0.167 h, 0.333 h, 0.5 h, 1 h, 2 h, 4 h, 6 h, 8 h, 12 h, and 24 h, 50 µL of blood was collected from the fundus vein of each mouse into a sample tube containing heparin sodium as an anticoagulant, and then the tube was placed in wet ice and centrifuged at 4000 r·min^-1 for 10 min. The plasma was separated, and cryopreserved in a refrigerator at -80 °C for testing.
The concentrations of the plasma samples were measured by high-performance liquid chromatography-tandem mass spectrometry (LC-MS/MS). The retention times of the compounds and internal standard, chromatographic acquisitions, and integrals of chromatograms were processed using the software Analyst (AB SCIEX), and statistical analysis of the data was performed using the software Microsoft office. The plasma concentrations were processed using a non-compartmental model of the pharmacokinetic software WinNonlin™ Version 6.3 (Pharsight, Mountain View, CA), and the pharmacokinetic parameters were calculated using a linear log-trapezoidal method. Table 4. Results of pharmacokinetic experiment in mice

[2] = test system: mice with PTZ-induced convulsions; experiment: in vivo efficacy experiment in PTZ-induced epilepsy mouse model; parameters: species or system C57 mice; details: for Survival rate: 60 min before PTZ 120 mg/kg s.c., 30 min observation; for Number of clonic seizures / Number of tonic seizures / Clonic seizure latency period / Tonic seizure latency period: Mean ± SEM; for Clonic seizure latency period / Tonic seizure latency period: no seizure in 30 min recorded as 1800 s; for protective effects against acute epileptic seizures: conclusion in words
Protocol: Male C57 mice, purchased from SPF (Suzhou) Biotechnology Co., Ltd.
PTZ: a 120 mg/kg PTZ solution (administration volume: 10 mL/kg) was prepared with normal saline as the solvent.
Test compounds: solutions of the test compounds at 3/1/0.3 mg/kg (administration volume: 10 mL/kg) were prepared with Vehicle in section 1.4 as the solvent.
One hour before the test, the experimental animals were transferred into an operation room for acclimation.
The mice were randomly grouped, marked, and weighed, with 10 mice in each group. At 60 min before PTZ administration, the test compounds and Vehicle were separately orally administered.
The PTZ solution was administered subcutaneously before experimental observation, and this time point was recorded as the observation starting point.
Immediately after PTZ administration, the animals were placed in observation boxes and observed for 30 min. The following observations of the animals were recorded:
Clonic seizure: the animal has a generalized myoclonus that lasts for more than 3 s and is accompanied by falling.
Tonic seizure: the limbs are straightened at a 90° angle to the torso.
All metrology data were expressed as mean ± standard error of mean (Mean ± SEM), and the Prism 8.0 statistical software was used for data testing and analysis.

[3] = positive modulator enhancing GABAa receptor currents induced by 1 µM GABA, CHO cells, read-out: EC50

GABAa receptor (α1β2γ2), sequence (P14867 28-456): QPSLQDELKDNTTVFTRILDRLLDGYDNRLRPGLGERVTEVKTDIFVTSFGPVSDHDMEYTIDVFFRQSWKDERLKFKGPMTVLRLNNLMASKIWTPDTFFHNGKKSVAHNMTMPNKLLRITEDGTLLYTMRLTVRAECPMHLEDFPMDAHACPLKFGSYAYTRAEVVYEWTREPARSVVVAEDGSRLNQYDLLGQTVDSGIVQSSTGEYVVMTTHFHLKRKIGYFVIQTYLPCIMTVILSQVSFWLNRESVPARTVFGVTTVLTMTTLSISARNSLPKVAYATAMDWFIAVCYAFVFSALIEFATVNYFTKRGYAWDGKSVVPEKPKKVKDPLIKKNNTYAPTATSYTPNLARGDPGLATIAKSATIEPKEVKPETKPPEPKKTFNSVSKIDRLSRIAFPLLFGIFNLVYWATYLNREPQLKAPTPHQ
GABAa receptor (α1β2γ2), sequence (P47870 25-512 limits assumed): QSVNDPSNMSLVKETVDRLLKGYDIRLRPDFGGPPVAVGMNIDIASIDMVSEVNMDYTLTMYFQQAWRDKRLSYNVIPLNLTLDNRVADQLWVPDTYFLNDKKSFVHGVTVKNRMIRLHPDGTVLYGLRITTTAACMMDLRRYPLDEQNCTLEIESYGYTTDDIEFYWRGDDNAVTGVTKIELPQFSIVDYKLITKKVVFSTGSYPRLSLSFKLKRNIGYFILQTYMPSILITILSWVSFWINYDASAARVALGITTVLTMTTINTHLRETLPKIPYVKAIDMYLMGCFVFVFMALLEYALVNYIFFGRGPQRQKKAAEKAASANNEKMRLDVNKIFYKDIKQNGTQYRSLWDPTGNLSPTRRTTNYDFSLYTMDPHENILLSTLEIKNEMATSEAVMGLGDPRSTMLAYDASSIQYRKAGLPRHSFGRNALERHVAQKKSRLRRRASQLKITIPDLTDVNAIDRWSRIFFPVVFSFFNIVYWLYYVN
GABAa receptor (α1β2γ2), sequence (P18507 40-475 partner): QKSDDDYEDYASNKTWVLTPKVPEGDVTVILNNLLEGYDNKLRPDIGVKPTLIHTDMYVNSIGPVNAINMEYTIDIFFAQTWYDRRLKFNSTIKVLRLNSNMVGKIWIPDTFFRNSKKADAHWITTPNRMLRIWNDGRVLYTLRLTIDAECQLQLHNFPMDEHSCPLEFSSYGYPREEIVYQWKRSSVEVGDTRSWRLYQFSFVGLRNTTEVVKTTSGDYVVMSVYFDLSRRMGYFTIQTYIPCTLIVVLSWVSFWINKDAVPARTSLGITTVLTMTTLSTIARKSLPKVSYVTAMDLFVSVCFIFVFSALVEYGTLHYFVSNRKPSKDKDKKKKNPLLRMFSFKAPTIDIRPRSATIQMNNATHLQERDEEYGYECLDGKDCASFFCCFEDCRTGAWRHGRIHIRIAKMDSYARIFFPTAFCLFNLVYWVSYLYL

SMILES | Emax compared to Sage-217 (GABAa receptor (α1β2γ2)) | EC50 (GABAa receptor (α1β2γ2); [3]) [nM] | AUC(0-t) [1] [ng·h/mL] | Cmax [1] [ng/mL] | Tmax [1] [min] | half-life [1] [min] | Survival rate ([2]; dose 0.3 mg/kg p.o.) [%] | Survival rate ([2]; dose 1 mg/kg p.o.) [%] | Survival rate ([2]; dose 3 mg/kg p.o.) [%] | Number of clonic seizures ([2]; dose 3 mg/kg p.o.) | Number of tonic seizures ([2]; dose 3 mg/kg p.o.) | Clonic seizure latency period ([2]; dose 3 mg/kg p.o.) [s] | Tonic seizure latency period ([2]; dose 3 mg/kg p.o.) [s] | protective effects against acute epileptic seizures ([2]; extremely low dose (0.3 mpk)) | protective effects against acute epileptic seizures ([2]; low dose (1 mpk)) | activation at 0.1 µM (GABAa receptor (α1β2γ2); single concentration 0.1 µM, relative enhancement amplitude of GABAa receptor currents induced by 1 µM GABA, CHO cells, read-out: Agonist ratio) [%] | EC50 (GABAa receptor (α1β2γ2)) [nM]
C[C@@H]1C[C@H](C(=O)Cn2ncnn2)[C@@]2(C)CC[C@H]3[C@@H](CC[C@@H]4C[C@](C)(O)[C@@H](C)C[C@@H]43)[C@H]12 [Example 9, 1-((2S,3S,5R,8R,9R,10S,13S,14S,15R,17S)-3-Hydroxy-2,3,13,15-tetramethylhexadecahydro-1H-cyclopenta[a]phenanthren-17-yl)-2-(2H-tetrazol-2-yl)ethan-1-one] | lower Emax compared to Sage-217 | 40 | 23600 | 3480 | 19.8 | 141 | 10 | 100 | 100 | 0.2±0.1 | 0.0±0.0 | 1649.7 ± 105.0 | 1800.0 ± 0.0 | partial protective effects | significant protective effects |  | 
C[C@H]1C[C@H]2[C@H](CC[C@@H]3[C@@H]2CC[C@]2(C)[C@@H](C(=O)Cn4ncnn4)CC[C@@H]32)C[C@]1(C)O [Example 20, 1-((2S,3S,5R,8R,9R,10S,13S,14S,17S)-3-Hydroxy-2,3,13-trimethylhexadecahydro-1H-cyclopenta[a]phenanthren-17-yl)-2-(2H-tetrazol-2-yl)ethan-1-one] | lower Emax compared to Sage-217 | 110 | 32200 | 2580 | 30 | 155 | 10 | 100 |  | 0.0±0.0 | 0.0±0.0 | 1800.0 ± 0.0 | 1800.0 ± 0.0 | partial protective effects | significant protective effects | 970 | 
C[C@@]1(O)CC[C@H]2[C@H](CC[C@@H]3[C@@H]2CC[C@]2(C)[C@@H](C(=O)Cn4cc(C#N)cn4)CC[C@@H]32)C1 [Sage-217, reference compound] |  |  | 9160 | 1510 | 60 |  | 0 | 100 | 100 | 0.9±0.3 | 0.0±0.0 | 1012.3 ± 181.4 | 1800.0 ± 0.0 |  | significant protective effects |  | 120
